Assay results from ChEMBL document CHEMBL3862033 (J Med Chem, 2016).

Tests used:
[1] = molecular target: T1, 5-hydroxytryptamine receptor 2C (Homo sapiens) (UniProt P28335); assay: Displacement of [3H]mesulergine from human 5-HT2CR expressed in Flp-In HEK cell membranes at 10 uM incubated for 90 mins under dark condition by microbeta scintillation counting method relative to control; settings: HEK293
T1 sequence (whole entry): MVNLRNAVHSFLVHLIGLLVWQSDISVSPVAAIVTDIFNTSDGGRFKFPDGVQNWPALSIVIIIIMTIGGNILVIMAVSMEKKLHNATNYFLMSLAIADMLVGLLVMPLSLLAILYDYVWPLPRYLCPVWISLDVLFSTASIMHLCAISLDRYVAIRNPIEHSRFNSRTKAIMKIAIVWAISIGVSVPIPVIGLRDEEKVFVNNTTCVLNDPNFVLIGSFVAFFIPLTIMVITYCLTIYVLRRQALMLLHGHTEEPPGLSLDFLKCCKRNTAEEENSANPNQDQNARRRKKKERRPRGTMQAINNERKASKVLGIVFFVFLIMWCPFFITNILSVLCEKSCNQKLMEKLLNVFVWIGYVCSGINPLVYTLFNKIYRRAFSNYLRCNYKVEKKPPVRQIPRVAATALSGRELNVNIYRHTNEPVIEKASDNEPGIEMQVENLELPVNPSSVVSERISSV

[2] = molecular target: T2, Adenosine receptor A1 (Homo sapiens) (UniProt P30542); assay: Displacement of [3H]N6-phenylisopropyladenosine from recombinant human A1AR expressed in CHO cell membranes at 10 uM after 60 mins by liquid scintillation counting method relative to control
T2 sequence (whole entry): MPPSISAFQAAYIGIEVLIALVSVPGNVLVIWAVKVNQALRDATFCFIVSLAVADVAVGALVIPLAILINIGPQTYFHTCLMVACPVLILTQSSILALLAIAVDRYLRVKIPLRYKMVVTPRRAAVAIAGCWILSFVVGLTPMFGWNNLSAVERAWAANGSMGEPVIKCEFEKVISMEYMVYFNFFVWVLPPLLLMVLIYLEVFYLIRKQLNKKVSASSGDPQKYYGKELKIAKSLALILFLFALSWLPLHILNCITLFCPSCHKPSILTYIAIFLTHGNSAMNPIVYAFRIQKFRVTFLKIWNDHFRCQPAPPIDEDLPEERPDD

[3] = molecular target: 5-hydroxytryptamine receptor 6 (Homo sapiens) (UniProt P50406); assay: Displacement of [3H]LSD from human 5-HT6 receptor expressed in HEK cell membranes at 10 uM incubated for 90 mins under dark condition by microbeta scintillation counting method relative to control; settings: HEK293
[4] = molecular target: 5-hydroxytryptamine receptor 1B (Homo sapiens) (UniProt P28222); assay: Displacement of [3H]5-CT from human 5-HT1BR expressed in HEK cell membranes at 10 uM incubated for 90 mins under dark condition by microbeta scintillation counting method relative to control; settings: HEK293
[5] = molecular target: 5-hydroxytryptamine receptor 1D (Homo sapiens) (UniProt P28221); assay: Displacement of [3H]5-CT from human 5-HT1D receptor expressed in HEK-T cell membranes at 10 uM incubated for 90 mins under dark condition by microbeta scintillation counting method relative to control
[6] = molecular target: Adenosine receptor A3 (Homo sapiens) (UniProt P0DMS8); assay: Displacement of [125l]N 6-(4-amino-3-iodobenzyl)adenosine-5'-N-methyluronamide from recombinant human A3AR expressed in CHO cell membranes at 10 uM after 60 mins by gamma counting method relative to control
[7] = molecular target: 5-hydroxytryptamine receptor 5A (Homo sapiens) (UniProt P47898); assay: Displacement of [3H]LSD from human 5-HT5A receptor expressed in Flp-In-CHO cell membranes incubated for 90 mins under dark condition by microbeta scintillation counting method relative to control; design: concentration or dose not given beside the values
[8] = molecular target: 5-hydroxytryptamine receptor 4 (Homo sapiens) (UniProt Q13639); assay: Displacement of [3H]GR113808 from human 5-HT4 receptor at 10 uM incubated for 90 mins under dark condition by microbeta scintillation counting method relative to control
[9] = molecular target: 5-hydroxytryptamine receptor 7 (Homo sapiens) (UniProt P34969); assay: Displacement of [3H]LSD from human 5-HT7A receptor expressed in HEK cell membranes at 10 uM incubated for 90 mins under dark condition by microbeta scintillation counting method relative to control; settings: HEK293
[10] = molecular target: 5-hydroxytryptamine receptor 1E (Homo sapiens) (UniProt P28566); assay: Displacement of [3H]5-HT from human 5-HT1E receptor expressed in HEK cell membranes at 10 uM incubated for 90 mins under dark condition by microbeta scintillation counting method relative to control; settings: HEK293
[11] = molecular target: T3, 5-hydroxytryptamine receptor 2A (Homo sapiens, UniProt P28223); assay: Displacement of [3H]ketanserin from human 5-HT2A receptor expressed in HEK-T cell membranes at 10 uM incubated for 90 mins under dark condition by microbeta scintillation counting method relative to control
[12] = molecular target: T4, 5-hydroxytryptamine receptor 1A (Homo sapiens) (UniProt P08908); assay: Displacement of [3H]WAY100635 from human 5-HT1AR expressed in CHO cell membranes at 10 uM incubated for 90 mins under dark condition by microbeta scintillation counting method relative to control
T4 sequence (whole entry): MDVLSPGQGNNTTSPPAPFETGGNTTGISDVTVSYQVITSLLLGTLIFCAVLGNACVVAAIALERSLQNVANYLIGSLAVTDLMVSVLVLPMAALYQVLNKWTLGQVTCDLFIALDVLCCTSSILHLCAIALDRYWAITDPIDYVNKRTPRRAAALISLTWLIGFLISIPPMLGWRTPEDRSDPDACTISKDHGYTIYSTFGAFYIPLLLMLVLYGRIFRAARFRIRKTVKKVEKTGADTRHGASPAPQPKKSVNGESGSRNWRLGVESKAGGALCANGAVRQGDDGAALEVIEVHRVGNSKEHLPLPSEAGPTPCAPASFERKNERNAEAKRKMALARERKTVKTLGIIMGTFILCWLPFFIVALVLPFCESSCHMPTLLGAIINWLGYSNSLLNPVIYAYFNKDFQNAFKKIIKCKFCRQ

Adenosine receptor A2a = Adenosine receptor A2a (Homo sapiens, UniProt P29274); assay: Displacement of [3 H]2-[p-(2-carboxyethyl)phenyl-ethylamino]-5'-N-ethylcarboxamidoadenosine from recombinant human adenosine receptor A2A expressed in HEK293 cell membranes at 10 uM after 60 mins by liquid scintillation counting method relative to control
[13] = molecular target: T5, 5-hydroxytryptamine receptor 2C (Homo sapiens, UniProt P28335); assay: Displacement of [3H]mesulergine from human 5-HT2CR expressed in Flp-In HEK cell membranes incubated for 90 mins under dark condition by microbeta scintillation counting method; design: species or system HEK293
T5 sequence (P28335 whole entry): T1 sequence (whole entry)

[14] = molecular target: T3, 5-hydroxytryptamine receptor 2A; assay: Displacement of [3H]ketanserin from human 5-HT2A receptor expressed in HEK-T cell membranes incubated for 90 mins under dark condition by microbeta scintillation counting method
[15] = molecular target: T6, 5-hydroxytryptamine receptor 2B (Homo sapiens, UniProt P41595); settings: HEK293, at 10 µM
[16] = molecular target: T7, 5-hydroxytryptamine receptor 3A (Homo sapiens) (UniProt P46098); assay: Displacement of [3H]GR65630 from human 5-HT3 receptor expressed in HEK-T cell membranes at 10 uM incubated for 90 mins under dark condition by microbeta scintillation counting method relative to control
T7 sequence (whole entry): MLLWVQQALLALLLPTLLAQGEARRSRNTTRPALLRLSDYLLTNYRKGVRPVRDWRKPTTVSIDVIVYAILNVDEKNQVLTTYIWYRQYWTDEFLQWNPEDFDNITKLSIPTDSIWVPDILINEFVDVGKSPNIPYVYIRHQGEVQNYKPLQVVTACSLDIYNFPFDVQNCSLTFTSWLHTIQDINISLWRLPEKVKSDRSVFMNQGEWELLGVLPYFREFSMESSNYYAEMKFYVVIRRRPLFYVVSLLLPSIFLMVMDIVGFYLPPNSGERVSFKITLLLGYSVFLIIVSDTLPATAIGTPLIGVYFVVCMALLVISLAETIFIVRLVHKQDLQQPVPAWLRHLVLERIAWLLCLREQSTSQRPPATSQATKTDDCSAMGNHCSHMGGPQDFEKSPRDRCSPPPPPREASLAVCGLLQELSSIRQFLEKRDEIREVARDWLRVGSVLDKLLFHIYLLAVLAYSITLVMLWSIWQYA

[17] = molecular target: T6, 5-hydroxytryptamine receptor 2B; assay: biochemical; format: cell-based, HEK293
[18] = molecular target: 5-hydroxytryptamine receptor 3A (Homo sapiens, UniProt P46098); assay: Displacement of [3H]GR65630 from human 5-HT3 receptor expressed in HEK-T cell membranes incubated for 90 mins under dark condition by microbeta scintillation counting method
Adenosine receptor A1 = molecular target: T8, Adenosine receptor A1 (Homo sapiens, UniProt P30542); assay: Displacement of [3H]N6-phenylisopropyladenosine from recombinant human A1AR expressed in CHO cell membranes after 60 mins by liquid scintillation counting method
T8 sequence (P30542 whole entry): T2 sequence (whole entry)

Adenosine receptor A3 = molecular target: T9, Adenosine receptor A3 (Homo sapiens, UniProt P0DMS8); assay: Displacement of [125l]N 6-(4-amino-3-iodobenzyl)adenosine-5'-N-methyluronamide from recombinant human A3AR expressed in CHO cell membranes after 60 mins by gamma counting method
T9 sequence (P0DMS8 whole entry): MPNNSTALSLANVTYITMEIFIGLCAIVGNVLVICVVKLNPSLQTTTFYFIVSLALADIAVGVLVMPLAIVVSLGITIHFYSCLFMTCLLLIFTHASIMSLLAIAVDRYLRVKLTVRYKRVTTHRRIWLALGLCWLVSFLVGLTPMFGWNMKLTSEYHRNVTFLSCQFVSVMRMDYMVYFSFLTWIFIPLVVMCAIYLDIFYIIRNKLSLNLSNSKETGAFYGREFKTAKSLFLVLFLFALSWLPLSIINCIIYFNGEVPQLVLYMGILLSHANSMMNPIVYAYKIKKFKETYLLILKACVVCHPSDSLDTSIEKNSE

Translocator protein = Translocator protein (Homo sapiens, UniProt P30536); assay: Inhibition of TSPO (unknown origin)
[19] = Displacement of [3H]DTG from sigma2 receptor in rat PC12 cells after 90 mins by microbeta scintillation counting method; format: cell-based; settings: pc-12

5-hydroxytryptamine receptor 1E (Homo sapiens), sequence (P28566 whole entry): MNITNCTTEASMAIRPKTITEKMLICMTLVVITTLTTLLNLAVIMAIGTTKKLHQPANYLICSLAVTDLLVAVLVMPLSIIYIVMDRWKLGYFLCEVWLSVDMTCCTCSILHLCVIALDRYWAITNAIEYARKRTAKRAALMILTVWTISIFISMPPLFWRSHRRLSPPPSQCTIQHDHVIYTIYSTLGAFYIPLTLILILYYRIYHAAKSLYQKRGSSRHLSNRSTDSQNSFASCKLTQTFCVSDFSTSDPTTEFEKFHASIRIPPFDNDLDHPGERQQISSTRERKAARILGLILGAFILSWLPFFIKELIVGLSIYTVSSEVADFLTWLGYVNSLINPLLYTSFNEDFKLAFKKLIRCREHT
5-hydroxytryptamine receptor 1B (Homo sapiens), sequence (P28222 whole entry): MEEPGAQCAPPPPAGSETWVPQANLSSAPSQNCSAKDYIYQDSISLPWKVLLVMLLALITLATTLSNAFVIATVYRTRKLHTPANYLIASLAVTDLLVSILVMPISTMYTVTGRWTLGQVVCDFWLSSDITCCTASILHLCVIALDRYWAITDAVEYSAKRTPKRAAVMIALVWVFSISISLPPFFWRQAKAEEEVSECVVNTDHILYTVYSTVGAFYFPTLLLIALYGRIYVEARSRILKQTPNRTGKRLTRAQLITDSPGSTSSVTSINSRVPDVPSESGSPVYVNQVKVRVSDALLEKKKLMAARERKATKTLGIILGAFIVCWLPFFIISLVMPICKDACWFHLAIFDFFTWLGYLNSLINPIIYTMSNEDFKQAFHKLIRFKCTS
T6 sequence (P41595 whole entry): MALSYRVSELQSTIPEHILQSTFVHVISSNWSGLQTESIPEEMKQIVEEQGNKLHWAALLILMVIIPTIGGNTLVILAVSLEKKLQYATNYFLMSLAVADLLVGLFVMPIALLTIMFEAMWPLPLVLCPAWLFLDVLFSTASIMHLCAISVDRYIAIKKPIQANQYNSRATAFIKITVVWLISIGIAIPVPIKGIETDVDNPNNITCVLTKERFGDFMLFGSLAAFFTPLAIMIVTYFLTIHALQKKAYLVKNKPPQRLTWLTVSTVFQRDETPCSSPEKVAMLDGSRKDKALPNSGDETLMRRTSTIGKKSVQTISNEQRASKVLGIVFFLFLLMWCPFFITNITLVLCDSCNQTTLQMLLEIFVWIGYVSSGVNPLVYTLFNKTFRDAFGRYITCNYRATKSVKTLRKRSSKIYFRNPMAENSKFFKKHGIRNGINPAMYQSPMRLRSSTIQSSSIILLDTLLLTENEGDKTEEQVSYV
T3 sequence (P28223 whole entry): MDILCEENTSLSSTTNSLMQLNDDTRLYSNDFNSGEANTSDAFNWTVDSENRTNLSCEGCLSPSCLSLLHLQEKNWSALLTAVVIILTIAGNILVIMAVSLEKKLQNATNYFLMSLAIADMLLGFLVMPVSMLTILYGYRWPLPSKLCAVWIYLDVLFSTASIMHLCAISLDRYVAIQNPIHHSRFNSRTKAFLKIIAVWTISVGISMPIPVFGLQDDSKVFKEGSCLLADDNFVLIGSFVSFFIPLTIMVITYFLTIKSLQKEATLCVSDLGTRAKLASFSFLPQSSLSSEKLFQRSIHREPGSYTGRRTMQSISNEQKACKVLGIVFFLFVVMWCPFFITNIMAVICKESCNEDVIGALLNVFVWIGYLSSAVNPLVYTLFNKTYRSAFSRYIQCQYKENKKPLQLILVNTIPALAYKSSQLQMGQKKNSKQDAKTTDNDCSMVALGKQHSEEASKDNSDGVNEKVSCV
Adenosine receptor A2a, sequence (P29274 whole entry): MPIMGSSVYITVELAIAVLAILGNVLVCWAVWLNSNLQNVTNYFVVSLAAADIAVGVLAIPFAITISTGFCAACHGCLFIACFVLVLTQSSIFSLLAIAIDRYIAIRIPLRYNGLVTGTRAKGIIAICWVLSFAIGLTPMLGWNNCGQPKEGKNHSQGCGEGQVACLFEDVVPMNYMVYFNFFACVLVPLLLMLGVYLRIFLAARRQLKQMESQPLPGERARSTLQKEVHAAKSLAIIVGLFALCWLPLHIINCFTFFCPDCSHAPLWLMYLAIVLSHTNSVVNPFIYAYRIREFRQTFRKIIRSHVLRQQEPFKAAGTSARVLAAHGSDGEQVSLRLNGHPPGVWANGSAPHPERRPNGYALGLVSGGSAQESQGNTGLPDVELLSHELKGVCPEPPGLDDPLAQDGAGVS
5-hydroxytryptamine receptor 1D (Homo sapiens), sequence (P28221 whole entry): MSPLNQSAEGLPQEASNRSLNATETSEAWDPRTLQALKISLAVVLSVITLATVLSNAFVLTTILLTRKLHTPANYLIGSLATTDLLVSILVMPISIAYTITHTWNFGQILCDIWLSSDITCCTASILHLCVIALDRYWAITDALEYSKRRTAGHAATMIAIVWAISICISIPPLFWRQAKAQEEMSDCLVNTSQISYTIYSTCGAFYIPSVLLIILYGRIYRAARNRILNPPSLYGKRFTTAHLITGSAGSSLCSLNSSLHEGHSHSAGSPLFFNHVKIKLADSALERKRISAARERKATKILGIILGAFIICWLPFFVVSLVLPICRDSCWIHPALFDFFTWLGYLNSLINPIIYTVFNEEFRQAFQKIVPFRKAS
5-hydroxytryptamine receptor 7 (Homo sapiens), sequence (P34969 whole entry): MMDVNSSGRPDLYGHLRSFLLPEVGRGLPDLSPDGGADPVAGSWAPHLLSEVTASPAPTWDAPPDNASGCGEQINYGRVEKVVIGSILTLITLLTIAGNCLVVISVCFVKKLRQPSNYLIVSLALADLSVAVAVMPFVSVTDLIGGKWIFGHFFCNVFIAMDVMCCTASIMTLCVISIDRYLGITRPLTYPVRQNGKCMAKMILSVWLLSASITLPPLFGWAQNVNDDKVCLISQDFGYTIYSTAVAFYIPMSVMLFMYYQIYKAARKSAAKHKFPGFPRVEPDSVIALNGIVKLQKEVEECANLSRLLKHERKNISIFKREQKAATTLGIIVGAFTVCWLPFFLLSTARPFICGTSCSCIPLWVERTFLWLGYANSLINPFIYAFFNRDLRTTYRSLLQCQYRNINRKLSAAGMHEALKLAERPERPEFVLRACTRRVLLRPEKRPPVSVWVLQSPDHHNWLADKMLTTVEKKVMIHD
5-hydroxytryptamine receptor 4 (Homo sapiens), sequence (Q13639 whole entry): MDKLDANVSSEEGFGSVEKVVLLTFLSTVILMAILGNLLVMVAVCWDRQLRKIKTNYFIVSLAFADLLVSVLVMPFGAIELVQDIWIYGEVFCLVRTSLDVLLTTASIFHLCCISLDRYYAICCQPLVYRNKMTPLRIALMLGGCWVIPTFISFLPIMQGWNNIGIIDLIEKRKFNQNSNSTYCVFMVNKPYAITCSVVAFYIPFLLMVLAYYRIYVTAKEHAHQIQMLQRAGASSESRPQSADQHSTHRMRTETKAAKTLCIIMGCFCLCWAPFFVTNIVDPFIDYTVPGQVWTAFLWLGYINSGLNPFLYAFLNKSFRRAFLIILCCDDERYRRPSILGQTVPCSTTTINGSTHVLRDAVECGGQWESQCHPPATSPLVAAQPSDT
5-hydroxytryptamine receptor 6 (Homo sapiens), sequence (P50406 whole entry): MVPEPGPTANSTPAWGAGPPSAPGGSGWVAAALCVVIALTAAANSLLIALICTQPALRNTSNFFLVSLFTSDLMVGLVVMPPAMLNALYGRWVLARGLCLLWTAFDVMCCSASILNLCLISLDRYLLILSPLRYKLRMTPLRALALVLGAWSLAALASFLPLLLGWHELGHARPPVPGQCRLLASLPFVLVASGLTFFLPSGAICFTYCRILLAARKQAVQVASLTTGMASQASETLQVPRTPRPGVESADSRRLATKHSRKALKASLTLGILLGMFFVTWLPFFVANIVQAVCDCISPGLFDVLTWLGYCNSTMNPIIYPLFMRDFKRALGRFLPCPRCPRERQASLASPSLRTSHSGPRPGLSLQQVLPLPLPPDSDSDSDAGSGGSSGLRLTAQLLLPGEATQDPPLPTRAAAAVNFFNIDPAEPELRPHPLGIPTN
5-hydroxytryptamine receptor 5A (Homo sapiens), sequence (P47898 whole entry): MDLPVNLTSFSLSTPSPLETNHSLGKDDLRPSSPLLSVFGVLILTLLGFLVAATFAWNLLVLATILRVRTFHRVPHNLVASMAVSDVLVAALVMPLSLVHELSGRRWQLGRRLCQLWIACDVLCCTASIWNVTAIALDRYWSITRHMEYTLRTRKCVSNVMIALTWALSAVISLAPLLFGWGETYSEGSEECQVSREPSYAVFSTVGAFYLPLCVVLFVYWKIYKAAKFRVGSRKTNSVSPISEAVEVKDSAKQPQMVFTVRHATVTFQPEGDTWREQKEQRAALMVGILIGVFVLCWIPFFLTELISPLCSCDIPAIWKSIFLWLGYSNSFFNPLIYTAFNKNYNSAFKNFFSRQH
Translocator protein, sequence (P30536 whole entry): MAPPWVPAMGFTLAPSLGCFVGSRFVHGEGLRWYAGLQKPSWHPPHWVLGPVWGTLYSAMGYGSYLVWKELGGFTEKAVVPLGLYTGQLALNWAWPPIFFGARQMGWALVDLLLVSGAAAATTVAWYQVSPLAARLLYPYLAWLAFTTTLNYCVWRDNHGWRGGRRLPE

Row | inhibition [2] | inhibition [16] | SMILES | inhibition [1] | inhibition [3] | inhibition [4] | inhibition [5] | inhibition [7] | inhibition [8] | inhibition [9] | inhibition [10] | inhibition [11] | inhibition [12] | inhibition (Adenosine receptor A2a) | Ki [13] | Ki [14] | inhibition [15] | Ki [17] | Ki (Adenosine receptor A1) | Ki (Adenosine receptor A3) | other results
1 | < 10% | < 50% | CCOC(=O)[C@@]12C[C@@H]1[C@@H](n1cnc3c(N(C)C)nc(Cl)nc31)[C@H](O)[C@@H]2O | > 50% | < 50% | < 50% | < 50% | < 50% | < 50% | < 50% | < 50% | < 10% | < 50% | 13% | 1.35 µM | > 10 µM | > 50% | 0.671 µM | – | – | inhibition [6]: 30%
2 | – | – | O[C@@H]1[C@H](O)[C@@H]2C[C@@H]2[C@H]1n1cnc2c(NCc3cccc(Cl)c3)nc(Cl)nc21 | > 50% | < 50% | < 50% | < 50% | < 50% | < 50% | < 50% | < 50% | < 10% | < 50% | > 50% | 4.1 µM | > 10 µM | > 50% | 2.39 µM | 1.6 µM | – | Ki [18]: 3.26 µM
3 | 25% | < 50% | CNC(=O)[C@@]12C[C@@H]1[C@@H](n1cnc3c(N(C)C)nc(C#Cc4ccc(Cl)s4)nc31)[C@H](O)[C@@H]2O | > 50% | < 50% | < 50% | < 50% | < 50% | < 50% | < 50% | < 50% | 27% | < 50% | 15% | 8.5 µM | > 10 µM | < 10% | – | – | 0.0235 µM | Ki [19]: 7.3 µM

Row | SMILES | inhibition [2] | inhibition [16] | inhibition [1] | inhibition [3] | inhibition [4] | inhibition [5] | inhibition [7] | inhibition [8] | inhibition [9] | inhibition [10] | inhibition [11] | inhibition [12] | inhibition (Adenosine receptor A2a) | Ki [13] | Ki [14] | inhibition [15] | Ki [17] | Ki (Adenosine receptor A1) | Ki (Adenosine receptor A3) | other results
4 | CCCOC(=O)[C@@]12C[C@@H]1[C@@H](n1cnc3c(NC(C4CC4)C4CC4)nc(Cl)nc31)[C@H](O)[C@@H]2O | – | < 50% | > 50% | < 50% | < 50% | < 50% | < 50% | < 50% | < 50% | < 50% | < 10% | < 50% | 19% | 0.205 µM | > 10 µM | > 50% | 0.045 µM | 0.44 µM | 0.499 µM | Ki (Translocator protein): 2.2 µM
